Values after ≈ are worked out from the molar mass of the structure shown. Counter-ions that a name gives are not always drawn. Like-named read-outs stand apart in the source and are kept apart here.
Experiments:
S. aureus CIP 76.25 = experiment: MIC, broth microdilution; assay type: cell-based; conditions: Staphylococcus aureus, read-out: MIC S. aureus CIP 76.25
Method: (§1) The compounds of the present invention are useful antibacterial agents having a selective spectrum of activity in vitro against standard bacterial strains which are used to screen for activity against pathogenic bacteria. […] The activity is presented as Minimum Inhibitory Concentration (MIC) expressed in μg/ml.
(§2) Whole-cell antimicrobial activity was determined by broth microdilution method in microtiterplates. The compound was tested in serial 4-fold dilutions ranging from 0.06 to 64 mcg/mL. Test organisms were selected from the following laboratory strains: Staphylococcus aureus CIP 76.25, Staphylococcus aureus BAA39 MDR, Staphylococcus aureus NEM 14157 PeniR, Staphylococcus aureus CIP 54.146, Escherichia coli CIP 76.24. Bacteria were tested in Tryptic Soy (TS) or Mueller Hinton (MH) broth using an inoculum of 10^4 to 10^6 UFC/mL incubated at 37° C. for 20 h.
(§3) The minimum inhibitory concentration (MIC) was determined as the lowest concentration of compound at which no visible bacteria growth is observed (90% inhibition of absorbance of at […].)

S. aureus NEM14157 = experiment: MIC, broth microdilution; assay type: cell-based; conditions: Staphylococcus aureus, read-out: MIC S. aureus NEM14157
Method: as §1, §2, §3

E. coli CIP 76.24 = experiment: MIC, broth microdilution; assay type: cell-based; conditions: Escherichia coli, read-out: MIC E. coli CIP 76.24
Method: as §1, §2, §3

S. aureus BAA39MDR = experiment: MIC, broth microdilution; assay type: cell-based; conditions: Staphylococcus aureus, 20 h, read-out: MIC S. aureus BAA39MDR
Method: as §1, §2, §3

[1] = molecular target: T1, recombinant E. coli FabI enzyme (Escherichia coli, UniProt P0AEK4); experiment: FabI inhibition, fluorescence-based NADH assay; assay type: biochemical
T1 construct: 6-His (C); made in house; host or cells: prokaryotic expression vector
Method: Compound inhibitory activity of FabI enzyme is measured in vitro by the IC50 determination using a fluorescent based assay.
The protein FabI from E. coli is prepared and purified using standard methods for recombinant protein expression after cloning of the gene in a prokaryotic expression vector.
The biochemical activity of the FabI enzyme is assessed using the following method.
The assay buffer “AB” contains 50 mM Hepes pH7.5, 100 μM Dithiothreitol, 0.006% Triton-X100. The following components are added in a black polystyrene Costar plate up to a final volume of 55 μL: 1.5 μL DMSO, or inhibitor dissolved in DMSO and 53.5 μL of a FabI/NADH/NAD+ mixture in AB. After 60 min of pre-incubation at room temperature, the reaction is started by addition of 5 μL of Crotonoyl-CoA to a final volume of 60 μL. This reaction mixture is then composed of 40 nM FabI (produced in house from E. coli, C-terminal 6-His tagged), 20 μM NADH (Biochemika), 10 μM NAD+ (Biochemika), 50 μM Crotonoyl-CoA (Biochemika) and compound at defined concentration. Fluorescence intensity of NADH (lex=360 nm, lem=520 nm) is measured immediately after Crotonoyl-CoA addition, and 2 hours later by a Fluostar Optima (BMG). Enzyme activity is proportional to the signal decrease from which inhibition percentages are derived. For IC50 determinations, the inhibitor is tested at 6 to 10 different concentrations, and the related inhibitions are fitted to a classical langmuir equilibrium model using XLFIT (IDBS).
In Vitro Inhibition of Recombinant E. coli FabI Enzyme by Selected Compounds of Formula (I).

[2] = CIP76, broth microdilution, 37° C., 20 h
[3] = NEM14157, broth microdilution, 37° C., 20 h
[4] = recombinant E. coli FabI 40 nM, 60 min pre-incubation, NADH fluorescence, read-out: IC50

T1 sequence (P0AEK4 whole entry): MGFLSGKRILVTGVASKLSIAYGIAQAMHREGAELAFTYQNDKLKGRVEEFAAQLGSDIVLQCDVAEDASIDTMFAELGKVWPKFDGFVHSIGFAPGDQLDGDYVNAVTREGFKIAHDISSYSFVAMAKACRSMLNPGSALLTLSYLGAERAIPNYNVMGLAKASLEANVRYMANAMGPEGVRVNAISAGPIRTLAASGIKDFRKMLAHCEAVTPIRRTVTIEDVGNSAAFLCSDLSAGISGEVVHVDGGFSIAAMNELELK

Structure (SMILES) | MIC (S. aureus CIP 76.25; [2]) | MIC (S. aureus NEM14157; [3]) | MIC (E. coli CIP 76.24; [2]) | MIC (S. aureus BAA39MDR; broth microdilution, 37° C.) | IC50 [1] | MIC (S. aureus CIP 76.25; CIP76, 20 h) | MIC (E. coli CIP 76.24; CIP76, 20 h) | IC50 [1, 4] | MIC (S. aureus NEM14157; NEM14157, 20 h) | MIC (S. aureus BAA39MDR)
CCc1ccc(Oc2ccc(C(C)=O)cc2F)c(O)c1 [Example 29, 1-[4-(4-ethyl-2-hydroxyphenoxy)-3-fluorophenyl]ethanone] | 0.062 µg/mL (≈ 0.226 µM) | 0.062 µg/mL (≈ 0.226 µM) | 1 µg/mL (≈ 3.65 µM) | 0.062 µg/mL (≈ 0.226 µM) | 150 nM | – | – | – | – | –
CCc1ccc(Oc2ccc(C(C)=O)cc2F)c(OC(=O)CN)c1 [Example 85, acetate hydrochloride] | – | – | – | – | – | 0.062 µg/mL | 1 µg/mL | 110 nM | – | –
CCc1cc(O)c(Oc2cccnc2F)cc1F [Example 87, 5-Ethyl-4-fluoro-2-(2-fluoropyridin-3yloxy)phenol] | 0.062 µg/mL (≈ 0.247 µM) | 0.016 µg/mL (≈ 0.0637 µM) | 0.25 µg/mL (≈ 0.995 µM) | 0.062 µg/mL (≈ 0.247 µM) | 31 nM | – | – | – | – | –
CCCc1ccc(Oc2cc(F)nc(F)c2)c(O)c1 [Example 25B, 2-[(2,6-difluoropyridin-4-yl)oxy]-5-propylphenol] | 0.062 µg/mL (≈ 0.234 µM) | 0.062 µg/mL (≈ 0.234 µM) | 4 µg/mL (≈ 15.1 µM) | 0.062 µg/mL (≈ 0.234 µM) | 570 nM | – | – | – | – | –
CCc1cc(O)c(Oc2cccnc2N)cc1F [Example 84, 2-(2-aminopyridin-3yloxy)-5-ethyl-4-fluorophenol] | 0.25 µg/mL (≈ 1.01 µM) | 0.25 µg/mL (≈ 1.01 µM) | 0.25 µg/mL (≈ 1.01 µM) | 0.25 µg/mL (≈ 1.01 µM) | 100 nM | – | – | – | – | –
Oc1cc(CC(F)(F)F)ccc1Oc1cccc(F)n1 [Example 27, 2-[(6-fluoropyridin-2-yl)oxy]-5-(2,2,2-trifluoroethyl)phenol] | 0.25 µg/mL (≈ 0.87 µM) | 0.25 µg/mL (≈ 0.87 µM) | 4 µg/mL (≈ 13.9 µM) | 0.25 µg/mL (≈ 0.87 µM) | – | – | – | 470 nM | – | –
CCc1ccc(Oc2ccc(S(C)(=O)=O)cc2F)c(O)c1 [Example 64, 5-ethyl-2-[2-fluoro-4-(methylsulfonyl)phenoxy]phenol] | 0.25 µg/mL (≈ 0.806 µM) | 0.062 µg/mL (≈ 0.2 µM) | 1 µg/mL (≈ 3.22 µM) | 0.062 µg/mL (≈ 0.2 µM) | 130 nM | – | – | – | – | –
CCCc1ccc(Oc2ccc(OC)cc2)c(O)c1 [Example 16, 2-(4-methoxyphenoxy)-5-propylphenol] | 0.25 µg/mL (≈ 0.968 µM) | 0.25 µg/mL (≈ 0.968 µM) | 4 µg/mL (≈ 15.5 µM) | 0.25 µg/mL (≈ 0.968 µM) | 510 nM | – | – | – | – | –
CCc1ccc(Oc2ccc(OCCCN)cc2F)c(O)c1 [Example 39, 2-[4-(3-aminopropoxy)-2-fluorophenoxy]-5-ethyl phenol] | – | – | – | – | – | 1 µg/mL (≈ 3.27 µM) | 16 µg/mL (≈ 52.4 µM) | – | 1 µg/mL (≈ 3.27 µM) | 1 µg/mL (≈ 3.27 µM)
CCc1ccc(Oc2cc(F)ccc2N)c(O)c1 [Example 50, 2-(2-amino-5-fluorophenoxy)-5-ethylphenol] | – | – | – | – | – | – | – | 300 nM | – | –
CCc1ccc(Oc2ccccc2N)c(O)c1 [Example 34, 2-(2-aminophenoxy)-5-ethylphenol] | 0.25 µg/mL (≈ 1.09 µM) | 0.25 µg/mL (≈ 1.09 µM) | 1 µg/mL (≈ 4.36 µM) | 0.25 µg/mL (≈ 1.09 µM) | – | – | – | – | – | –
CCCc1ccc(Oc2cccc(Cl)n2)c(O)c1 [Example 6, 2-[(6-chloropyridin-2-yl)oxy]-5-propylphenol] | 1 µg/mL (≈ 3.79 µM) | 1 µg/mL (≈ 3.79 µM) | 16 µg/mL (≈ 60.7 µM) | 1 µg/mL (≈ 3.79 µM) | – | – | – | – | – | –
CCc1ccc(Oc2ccc(NCCCNS(C)(=O)=O)cc2F)c(O)c1 [Example 79, N-methanesulfonyl-N-1-[4-(4-ethyl-2-hydroxyphenoxy)-3-fluorophenyl]propan-1,3-diamine] | 0.25 µg/mL (≈ 0.654 µM) | 0.25 µg/mL (≈ 0.654 µM) | 16 µg/mL (≈ 41.8 µM) | 0.25 µg/mL (≈ 0.654 µM) | – | – | – | – | – | –
CCCc1ccc(Oc2cccnc2N)c(O)c1 [Example 55, 2-(2-Aminopyridin-3-yloxy)-5-propylphenol] | 0.25 µg/mL (≈ 1.02 µM) | – | 1 µg/mL (≈ 4.09 µM) | – | 92 nM | – | – | – | – | –
CCc1cc(O)c(Oc2cccc(F)n2)cc1F [Example 57] | 0.25 µg/mL (≈ 0.995 µM) | – | 4 µg/mL (≈ 15.9 µM) | – | 1100 nM | – | – | – | – | –
Oc1cc(C(F)=C(F)F)ccc1Oc1cccc(F)n1 [Example 28, 2-[(6-fluoropyridin-2-yl)oxy]-5-(trifluorovinyl) phenol] | – | – | – | – | – | – | – | 850 nM | – | –
CCc1ccc(Oc2ccc(C(=O)CCCO)cc2)c(O)c1 [Example 86, 1-[4-(4-ethyl-2-hydroxyphenoxy)phenyl]-4-hydroxy butan-1-one] | 0.062 µg/mL (≈ 0.206 µM) | 0.062 µg/mL (≈ 0.206 µM) | 4 µg/mL (≈ 13.3 µM) | 0.062 µg/mL (≈ 0.206 µM) | – | – | – | – | – | –
